According to patent publication US8609083B1, “Method for controlling fungal pathogen with bacterial metabolite” (The United States of America, as represented by the …, priority 2007, dated 2013):

Test system: F. effusum
Test: Suppression of F. effusum sporulation on pecan terminal shoots
Format: in vivo, Fusicladosporium effusum
Conditions: 72 hours at 25° C.; for suppression of F. effusum sporulation, Abbott's formula relative to the acetone control: undiluted metabolites or fungicide products
Protocol: Dormant twigs with spore lesion constitute a primary source of scab infestation in pecan orchards. Scab disbursal via twig lesion sporulation occurs in early spring when temperatures are optimal. […] The shoots were selected for uniformity in diameter, cut into 5 cm segments, and placed into 1.5×10 cm test tubes.
Pecan shoots were sonicated for 30 minutes in 6 ml of 1% TWEEN 20 solution (polyoxyehtylene (20) sorbitan monolaurate). The number of spores released per lesion was counted via a hemocytometer. […]. A portion of the shoots were sonicated and counted prior to exposure to fungicidal treatments to verify that the shoots had not sporulated. The initial shoots lesions were designated as the baseline treatment.
Shoots were exposed to the following fungicidal treatments: undiluted metabolites derived from either P. luminescens (Hb) or X. bovienii (SN), and three chemical fungicide products used for control of F. effusum, i.e., dodine (Dodine 65W, 65% active ingredient, wettable powder, Platte Chemical Co. Greeley, Colo.), fenbuconazole (ENABLE 2F, 240 grams/liter active ingredient, flowable, Dow AgroSciences, Indianapolis Ind.), and triphenyltin hydroxide (SUPERTIN, 80% active ingredient, wettable powder, Griffin L. L. C., Valdosta, Ga.). The bacteria P. luminescens (Hb) was isolated from Heterorhabditis bacteriophora Poinar. The bacteria X. bovienii (SN) was isolated from Steinernema feltiae (Filipjev).
The shoots were also exposed to a water control and acetone control. Acetone was used as a solvent for the metabolites. The treatments were applied using an airbrush sprayer. The shoots were incubated at 25° C. for 72 hours, and exposed to sonification and quantification of spores. Ten replicate shoots for each treatment and the experiment was repeated once.

Structure (SMILES)	sporulation of F. effusum on pecan shoots relative to the acetone or water control (FIG. 3)	suppression of F. effusum sporulation, Abbott's formula relative to the acetone control
[OH][Sn]([c]1ccccc1)([c]1ccccc1)[c]1ccccc1 [triphenyltin hydroxide]	No effect was detected	
CCCCCCCCCCCCNC(=N)N [dodine]		49.6%
N#CC(CCc1ccc(Cl)cc1)(Cn1cncn1)c1ccccc1 (stereo not drawn) [fenbuconazole]		80.4%
